This note sets out measurements from patent US20210137961A1, “Compositions and Methods for Treating Dry Eye Diseases” (priority 2017, published 2021).

In assay [1] the test system is Haemophilus parainfluenzae. Briefly: MIC against Haemophilus parainfluenzae. Type of assay: cell-based. The following applies: N 11.
The subject of another assay is TNFα. The assay can be described thus: LPS-induced TNFα production in PMA-differentiated U937 cells (ELISA). The following applies: for inhibition of TNFα production (in words): solithromycin and telithromycin at 100 μM, clarithromycin at 333 μM. Type of assay: cell-based, human. Here is the method: (§1) EXAMPLE. […] Cells. The human monocytic cell line U937 was obtained from the American Type Culture Collection (ATCC, Rockville, Md.). PBMCs from COPD patients were obtained from Brompton hospital and separated by AccuSPIN (Sigma-Aldrich). […] U937 cells were differentiated into adherent macrophage-like morphology by exposure to PMA (50 ng/ml) for 48 h in complete growth medium. Cell viability was assessed microscopically by trypan blue staining. Cell toxicity was determined by MTT assay as needed. This study was approved by the ethics committee of the Royal Brompton Hospitals, and all subjects gave written informed consent. Cytokine ELISA. TNFα and IL-8 concentrations in the supernatant of cell cultures were determined by sandwich ELISA according to the manufacturer's instructions (R&D Systems Europe, Abingdon, UK). Statistical analysis. The results were expressed as the mean±SEM. Comparisons of data in two groups were performed using the Student's t test or the Wilcoxon signed rank test. Multiple comparisons were made by one-way ANOVA with post hoc test (Dunnett's) as appropriate. The difference was considered significant at p<0.05. […] Anti-inflammatory effects of solithromycin in U937 cells.

The subject of the next assay is CXCL8. Briefly: LPS-induced CXCL8 (IL-8) production in PMA-differentiated U937 cells (ELISA). Type of assay: cell-based, human. As to conditions: for inhibition of CXCL8 (IL-8) production (in words): solithromycin and telithromycin at 100 μM, clarithromycin at 333 μM. As for the experimental part:
as §1

For the next assay, the system named is Mycoplasma hominis. Briefly: MIC against Mycoplasma hominis. The following applies: N 13. Type of assay: cell-based.
The next assay relates to phospholipase. The assay can be described thus: Phospholipase inhibition in other cell lines. As to conditions: for IC50: read-out: IC50 for phospholipase inhibition, other cell lines. The class given is cell-based.
The next assay relates to MMP9. Briefly: MMP9 activity in PMA-stimulated U937 cells (gelatin zymography). The class given is cell-based, human. The following applies: PMA stimulation. Here is the method: EXAMPLE. […] Cells. The human monocytic cell line U937 was obtained from the American Type Culture Collection (ATCC, Rockville, Md.). PBMCs from COPD patients were obtained from Brompton hospital and separated by AccuSPIN (Sigma-Aldrich). […] U937 cells were differentiated into adherent macrophage-like morphology by exposure to PMA (50 ng/ml) for 48 h in complete growth medium. Cell viability was assessed microscopically by trypan blue staining. Cell toxicity was determined by MTT assay as needed. This study was approved by the ethics committee of the Royal Brompton Hospitals, and all subjects gave written informed consent. Zymography. MMP9 enzyme activity was measured by gelatin zymography. […] After electrophoresis, gels were incubated and rinsed with Novex® zymogram renaturing buffer (Invitrogen) for 30 min at room temperature. The gels were then rinsed in Novex® zymogram developing buffer (Invitrogen) for 30 min at room temperature prior to overnight incubation in the developing buffer at 37° C. After incubation, the gels were stained using a Colloidal Blue Staining Kit (Invitrogen) to visualize the zymogen bands. Statistical analysis. The results were expressed as the mean±SEM. Comparisons of data in two groups were performed using the Student's t test or the Wilcoxon signed rank test. Multiple comparisons were made by one-way ANOVA with post hoc test (Dunnett's) as appropriate. The difference was considered significant at p<0.05.

The subject of assay [2] is Immortalized human meibomian gland epithelial cells (HMGECs). Briefly: HMGEC lysosome and neutral lipid accumulation, differentiation and proliferation. The class given is cell-based. The following applies: meibomian gland epithelial cells. Here is the method:
EXAMPLE. Immortalized human meibomian gland epithelial cells (HMGECs) are cultured in the presence of vehicle or test compound, such as Soli (2, 10, or 20 μg/ml) for 1 to 7 days under proliferating (keratinocyte serum-free medium; KSFM) or differentiating (DMEM/F12 plus 10% fetal bovine serum) conditions. A positive control (epidermal growth factor and bovine pituitary extract for proliferation; Azi for differentiation) and a negative control (media only) are included with the experiments. Additional details are described in JAMA Ophthalmol 132(2): 226-228 (Feb. 1, 2014) and Current Eye Research, 1-6 (2017), each of which is incorporated herein by reference.
HMGECs are evaluated for cell number, neutral lipid content (LipidTox) and lysosome accumulation (LysoTracker). […] Strong lysosomal effects are observed with the 10 μg/ml dose of Soli (relative stimulation=30), on the first day of dosing, and those effects are statistically different (p<0.01) from the control group (relative stimulation=13). In contrast, the 10 μg/m1Azi dose is not statistically different from the control group (relative stimulation=18) until day 3. […] Compounds described herein, such a Soli, affect lysosome and lipid accumulation and differentiation of HMGECs. The effect of Soli on lysosome appearance is faster than that of Azi.

Another assay has as its system P. acnes. The assay can be described thus: MIC against P. acnes. Type of assay: cell-based. The following applies: for MIC50 / MIC90: Cutibacterium acnes.

Values after ≈ are worked out from the molar mass of the structure shown.

In general, IC50 refers to the concentration needed to halve the response being measured. For `CC[C@H]1OC(=O)[C@H](C)[C@@H](O[C@H]2C[C@@](C)(OC)[C@@H](O)[C@H](C)O2)[C@H](C)[C@@H](O[C@@H]2O[C@H](C)C[C@H](N(C)C)[C@H]2O)[C@](C)(O)C[C@@H](C)CN(C)[C@H](C)[C@@H](O)[C@]1(C)O` [Azithromycin, azithromycin], the “MIC Range” value is 0.5-2^ μg/mL in assay [1] and 0.5-4^ μg/mL with Mycoplasma hominis. Besides, in the assay on TNFα, the “inhibition of TNFα production (in words)” value is “did not inhibit”. In addition, the “inhibition of CXCL8 (IL-8) production (in words)” value (“inhibition of CXCL8” for short) in the assay on CXCL8 is recorded as “did not inhibit”. Also, the “reversibility of phospholipase inhibition” value in the assay with phospholipase (after dosing is stopped) was “remains unchanged for several days after dosing is stopped”. For the same molecule, the IC50 with phospholipase turned out to be 300 µM. Further, the “inhibitory effects on MMP9 activity, lower than solithromycin” value in the assay on MMP9 came out at 10 fold.

On to `CC[C@H]1OC(=O)[C@H](C)[C@@H](O[C@H]2C[C@@](C)(OC)[C@@H](O)[C@H](C)O2)[C@H](C)[C@@H](O[C@@H]2O[C@H](C)C[C@H](N(C)C)[C@H]2O)[C@](C)(OC)C[C@@H](C)C(=O)[C@H](C)[C@@H](O)[C@]1(C)O` [Clarithromycin, clarithromycin], for which the IC50 in the assay on TNFα (Homo sapiens, U-937, LPS, PMA-differentiated U937 cells, read-out: IC50 on TNFα release) worked out at 426 ± 63.9 µM; in the assay with CXCL8 (Homo sapiens, U-937, LPS, PMA-differentiated U937 cells, read-out: IC50 on CXCL8 release) it was 506 ± 44 µM. Also, in the assay on TNFα, the “inhibition of TNFα production (in words)” value is “modest effects”. In the assay on CXCL8, the “inhibition of CXCL8” value is recorded as “modest effects”. Further, in assay [2], the “meibomian gland differentiation (in words)” value is “do not cause clinically significant meibomian gland differentiation”. The “inhibitory effects on MMP9 activity, lower than solithromycin” value in the assay on MMP9 worked out at 10 fold.

As a reminder, the MIC50 is the lowest concentration that inhibits either 50% of growth or 50% of the strains tested, depending on the study. Higher therefore signals weaker potency. A word on the MIC90: it is an inhibitory concentration at the 90% level, which refers to growth in some studies and to a panel of isolates in others. Consider `CCCCCCCCCC(=O)N[C@@H](Cc1c[nH]c2ccccc12)C(=O)N[C@H](CC(N)=O)C(=O)N[C@@H](CC(=O)O)C(=O)N[C@@H]1C(=O)NCC(=O)N[C@@H](CCCN)C(=O)N[C@@H](CC(=O)O)C(=O)N[C@H](C)C(=O)N[C@@H](CC(=O)O)C(=O)NCC(=O)N[C@H](CO)C(=O)N[C@@H]([C@H](C)CC(=O)O)C(=O)N[C@@H](CC(=O)c2ccccc2N)C(=O)O[C@@H]1C` [Daptomycin], for which, in the assay on P. acnes (P. acnes), the MIC50 was found to be 2 µg/mL (≈ 1.23 µM). In addition, in the assay on P. acnes (P. acnes (51 species)), the MIC90 was determined as 4 µg/mL (≈ 2.47 µM) and the “MIC Range” value was in the range of 0.5 to 8 µg/mL.

As for `CC[C@H]1OC(=O)[C@H](C)[C@@H](O[C@H]2C[C@@](C)(OC)[C@@H](O)[C@H](C)O2)[C@H](C)[C@@H](O[C@@H]2O[C@H](C)C[C@H](N(C)C)[C@H]2O)[C@](C)(O)C[C@@H](C)C(=O)[C@H](C)[C@@H](O)[C@]1(C)O` [Erythromycin], the “inhibition of TNFα production (in words)” value with TNFα is given as “did not inhibit”. Moreover, the “inhibition of CXCL8” value with CXCL8 is given as “did not inhibit”. Further, the half-maximal inhibitory concentration (IC50) in the assay on phospholipase was over 400 µM. Further, the “meibomian gland differentiation (in words)” value in assay [2] is given as “do not cause clinically significant meibomian gland differentiation”. Further, the “effect on MMP9 activity (in words)” value in the assay on MMP9 was “no effect”.

For the molecule `CC[C@H]1OC(=O)[C@H](C)C(=O)[C@H](C)[C@@H](O[C@@H]2O[C@H](C)C[C@H](N(C)C)[C@H]2O)[C@](C)(OC)C[C@@H](C)C(=O)[C@H](C)[C@H]2N(CCCCn3cnc(-c4cccnc4)c3)C(=O)O[C@]12C` [Telithromycin], in the assay with TNFα, the “inhibition of TNFα production (in words)” value is “did not inhibit”. Besides, in the assay on CXCL8, the “inhibition of CXCL8” value is “did not inhibit”. Also, the “meibomian gland differentiation (in words)” value in assay [2] is reported as “do not cause clinically significant meibomian gland differentiation”.

For `CN[C@H](CC(C)C)C(=O)N[C@H]1C(=O)N[C@@H](CC(N)=O)C(=O)N[C@H]2C(=O)N[C@H]3C(=O)N[C@H](C(=O)N[C@H](C(=O)O)c4cc(O)cc(O)c4-c4cc3ccc4O)[C@H](O)c3ccc(c(Cl)c3)Oc3cc2cc(c3O[C@@H]2O[C@H](CO)[C@@H](O)[C@H](O)[C@H]2O[C@H]2C[C@](C)(N)[C@H](O)[C@H](C)O2)Oc2ccc(cc2Cl)[C@H]1O` [Vancomycin], the MIC50 against P. acnes (P. acnes) worked out at 1 µg/mL (≈ 0.69 µM). For the same molecule, in the assay with P. acnes (P. acnes (51 species)), the MIC90 was 1 µg/mL (≈ 0.69 µM) and the “MIC Range” value lay within 0.12 to 1 µg/mL.

Turning to `CC[C@H]1OC(=O)[C@H](C)C(=O)[C@H](C)[C@@H](O[C@@H]2O[C@H](C)C[C@H](N(C)C)[C@H]2O)[C@](C)(OC/C=C/c2cnc3ccccc3c2)C[C@@H](C)C(=O)[C@H](C)[C@H]2NC(=O)O[C@@]21C` [cethromycin], the “meibomian gland differentiation (in words)” value in assay [2] is listed as “do not cause clinically significant meibomian gland differentiation”.

Turning to Penicillin, in the assay with P. acnes (P. acnes), the “MIC 50%” value is at most 0.03 µg/mL. In addition, in the assay with P. acnes (P. acnes (51 species)), the “MIC 90%” value stood at 0.06 µg/mL and the “MIC Range” value is ≤0.03-1^ μg/ml.
